Data reported in patent US10865203B2, “Ligands selective to alpha 6 subunit-containing GABAA receptors and their methods of use” (UWM Research Foundation, Inc., priority 2015, dated 2020).
“Also recorded” adds a separate entry of the source.

Assays:
[1] = Microsomal stability assay, human liver microsomes; assay type: in vitro ADME; conditions: 10 μM test compound, 0.5 mg/mL protein, 37° C.
Protocol: (§1) 4 μL of 1 mM test compound at a final concentration of 10 μM dissolved in DMSO/ACN/Methanol/Ethanol was preincubated at 37° C. for 5 minutes on a digital heating shaking dry bath (Fischer scientific, Pittsburgh, Pa.) in a mixture containing 282 μL of water, 80 μL of phosphate buffer (0.5 M, pH 7.4), 20 μL of NADPH Regenerating System Solution A (BD Bioscience, San Jose, Calif.) and 4 μL of NADPH Regenerating System Solution B (BD Bioscience, San Jose, Calif.) in a total volume of 391.2 μL. Following preincubation, the reaction was initiated by addition of 8.8 μL of either human liver microsomes (BD Gentest, San Jose, Calif.), mouse liver microsomes (Life technologies, Rockford, Ill.), at a protein concentration of 0.5 mg/mL. Aliquots of 50 μL were taken at time intervals of 0 (without microsomes), 10, 20, 30, 40, 50 and 60 minutes. Each aliquot was added to 100 μL of cold acetonitrile solution containing 1 μM/2 μM internal standard. This was followed by sonication for 10 seconds and centrifugation at 10,000 rpm for 5 minutes. 100 μL of the supernatant was transferred into Spin-X HPLC filter tubes (Corning Incorporated, NY) and centrifuged at 13,000 rpm for 5 minutes. […] The ratio of the peak areas of the internal standard and test compound was calculated for every time point and the natural log of the ratio were plotted against time to determine the linear slope (k). […] All experiments were repeated three times in duplicates.

[2] = Microsomal stability assay, mouse liver microsomes; assay type: in vitro ADME; conditions: 10 μM test compound, 0.5 mg/mL protein, 37° C.
Protocol: as §1

[3] = system: αxβx, αxβ3γ2 and αβδ receptors; test: Electrophysiology in Xenopus oocytes, functional screening over all tested receptors; assay type: cell-based, rat
Protocol: Mature female Xenopus laevis (Nasco, Fort Atkinson, Wis., USA) were anaesthetized in a bath of ice-cold 0.17% Tricain (Ethyl-m-aminobenzoat, Sigma-Aldrich, St. Louis, Mo., USA) before decapitation and transfer of the frog's ovary to ND96 medium (96 mM NaCl, 2 mM KCl, 1 mM MgCl2, 5 mM HEPES; pH 7.5). Following incubation in 1 mg/mL collagenase (Sigma-Aldrich, St. Louis, Mo., USA) for 30 min, stage 5 to 6 oocytes were singled out of the ovary and defolliculated using a platinum wire loop. Oocytes were stored and incubated at 18° C. in NDE medium (96 mM NaCl, 2 mM KCl, 1 mM MgCl2, 5 mM HEPES, 1.8 mM CaCl2; pH 7.5) that was supplemented with 100 U per mL-1 penicillin, 100 μg per mL-1 streptomycin and 2.5 mM pyruvate. Oocytes were injected with an aqueous solution of mRNA. A total of 2.5 ng of mRNA per oocyte was injected. […] Maximum currents measured in mRNA injected oocytes were in the microampere range for all receptor subtypes. […] Data were digitized using a Digidata 1322A or 1550 data acquisition system (Axon Instruments, Union City, Calif., USA), recorded using Clampex 10.5 software (Molecular Devices, Sunnyvale, Calif., USA), and analyzed using Clampfit 10.5 and GraphPad Prism 6.0 (La Jolla, Calif., USA) software. […]
For selected test compounds full dose response curves were recorded in α1-6β3γ2 receptors. […]

[4] = system: GABA-A receptors, including α6 GABA-ARs; test: Modulation of GABA-A receptors by constituent of Cl leaves

SMILES	% left after 1 hr. (HLM) [1]	% left after 1 hr. (MLM) [2]	Half-life (min) (MLM) [2]	activity in all tested receptors [3]	modulation of GABA-A receptors [4]
[2H]C([2H])([2H])Oc1ccccc1-n1nc2c3cc(Cl)ccc3[nH]cc-2c1=O [DK-I-87-1, 8-Chloro-2-(2-methoxy-d3-phenyl)-2,5-dihydro-3H-pyrazolo[4,3-c]quinolin-3-one]	94.7 ± 0.07%	94.91 ± 0.10%	993 ± 189 min	inactive in all receptors that were tested so far; also recorded: essentially inactive in all tested receptors	–
COc1ccccc1-n1nc2c3cc(Cl)ccc3[nH]cc-2c1=O [LAU 165, 8-Chloro-2-(2-methoxyphenyl)-2H-pyrazolo[4,3-c]quinolin-3(5H)-one]	–	–	–	inactive in all receptors that were tested so far; also recorded: essentially inactive in all tested receptors	–
COc1c(O)cc2oc(-c3ccc(O)cc3)cc(=O)c2c1O [hispidulin]	–	–	–	–	positive allosteric modulator
